Assay results as given in patent US20100137313A1 (ASTRAZENECA AB, priority 2008, published 2010).

These compounds were tested against S. pneumoniae Topoisomerase IV ATPase (ParE) (Streptococcus pneumoniae serotype 4, UniProt Q59961) (assay: S. pneumoniae Topoisomerase IV ATPase inhibition). Details: values marked * are an average of two or more data points, read-out: % Inh (13 μM) of S. pneumoniae Topoisomerase IV ATPase.
Format: biochemical
Protocol: S. pneumoniae Topoisomerase IV ATPase Inhibition Activity: Compounds may be tested for inhibition of S. pneumoniae ParE ATPase activity using an ammonium molybdate/malachite green-based phosphate detection assay (Lanzetta, P. A., L. J. Alvarez, P. S. Reinach, and O. A. Candia, 1979, 100: 95-97). Assays are performed in multiwell plates in 30 μl reactions containing: 20 mM Tris buffer pH 8.0, 50 mM ammonium acetate, 8.0 mM magnesium chloride, 0.5 mM ethylenediaminetetraacetic acid, 5% glycerol, 5 mM 1,4-Dithio-DL-threitol, 0.005% Brij-35, 5 μg/ml sheared salmon sperm DNA, 1.25 nM S. pneumoniae ParE, 160 μM ATP, and test compound in dimethylsulfoxide. Reactions are quenched with 30 μl of ammonium molybdate/malachite green detection reagent containing 1.2 mM malachite green hydrochloride, 8.5 mM ammonium molybdate tetrahydrate, and 1 M hydrochloric acid. Plates are read in an absorbance plate reader at 650 nm and percent inhibition values are calculated using dimethylsulfoxide (2%)-containing reactions as 0% inhibition and EDTA-containing ([…]) reactions as 100% inhibition controls. An IC50 measurement of compound potency for each compound can be determined from reactions performed in the presence of 10 different compound concentrations.
Many of the compounds of the invention were tested in an assay substantially similar to the assays described above for measuring the inhibition of E.coli GyrB ATPase, E. coli Topoisomerase IV ATPase, S. aureus GyrB ATPase, and S. pneumoniae Topoisomerase IV ATPase, and had IC50 values of <200 μM in one or more assays.

Sequence of S. pneumoniae Topoisomerase IV ATPase (ParE) (Q59961 whole entry): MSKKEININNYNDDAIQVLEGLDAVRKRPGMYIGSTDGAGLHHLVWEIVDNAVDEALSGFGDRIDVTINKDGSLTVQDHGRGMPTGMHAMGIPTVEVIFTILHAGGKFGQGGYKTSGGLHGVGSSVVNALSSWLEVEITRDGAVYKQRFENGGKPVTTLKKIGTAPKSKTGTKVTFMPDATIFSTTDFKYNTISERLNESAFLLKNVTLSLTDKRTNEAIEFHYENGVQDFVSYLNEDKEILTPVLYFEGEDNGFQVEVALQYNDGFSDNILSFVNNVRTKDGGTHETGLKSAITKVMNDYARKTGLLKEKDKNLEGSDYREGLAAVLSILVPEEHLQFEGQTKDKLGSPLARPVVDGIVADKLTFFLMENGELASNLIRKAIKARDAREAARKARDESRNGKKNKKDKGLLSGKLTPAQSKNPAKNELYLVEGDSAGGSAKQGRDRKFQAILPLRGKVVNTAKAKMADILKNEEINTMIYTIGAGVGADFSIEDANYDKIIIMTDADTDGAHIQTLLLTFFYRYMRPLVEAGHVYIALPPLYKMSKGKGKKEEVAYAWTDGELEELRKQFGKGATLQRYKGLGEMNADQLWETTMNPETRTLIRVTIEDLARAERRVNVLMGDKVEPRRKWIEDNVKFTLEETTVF

Compared with `CCOC(=O)/C=C/c1cccc(-c2cnc(Nc3ccc(F)c(Cl)c3)nc2NC(COC)COC)c1` [Example 173, (E)-ethyl 3-(3-(2-(3-chloro-4-fluorophenylamino)-4-(1,3-dimethoxypropan-2-ylamino)pyrimidin-5-yl)phenyl)acrylate], `CN(C)CCCNc1nc(Nc2ccc(F)c(Cl)c2)ncc1-c1cccc(NS(=O)(=O)N(C)C)c1` [Example 11, N′-[3-(2-[(3-chloro-4-fluorophenyl)amino]-4-{[3-(dimethylamino)propyl]amino}pyrimidin-5-yl)phenyl]-N,N-dimethylsulfonamide] is lower in inhibition at 13 µM: 34.7% for the first, 18.2% for the second.

`COc1cc(Nc2ncc(-c3cncc(C(=O)NCCS(C)(=O)=O)c3)c(-n3ccc(C(F)(F)F)n3)n2)cc(OC)c1` [Example 684, 5-{2-[(3,5-dimethoxyphenyl)amino]-4-[3-(trifluoromethyl)-1H-pyrazol-1-yl]pyrimidin-5-yl}-N-[2-(methylsulfonyl)ethyl]pyridine-3-carboxamide] and `COc1cc(F)cc(Nc2ncc(-c3cncc(C(=O)O)c3)c(-n3ccc(C(F)(F)F)n3)n2)c1` [Example 914, 5-(2-(3-fluoro-5-methoxyphenylamino)-4-(3-(trifluoromthyl)-1H-pyrazol-1-yl)pyrimidin-5-yl)nicotinic acid] are the same in inhibition at 13 µM: 100% for the first, 100% for the second.

First: CONC(=O)/C=C/c1cccc(-c2cnc(Nc3cc(OC)cc(C(F)(F)F)c3)nc2NCCc2ccncc2)c1 [Example 374, (E)-N-methoxy-3-(3-(2-(3-methoxy-5-(trifluoromethyl)phenylamino)-4-(2-(pyridin-4-yl)ethylamino)pyrimidin-5-yl)phenyl)acrylamide]
Second: COc1cc(Nc2ncc(-c3cncnc3)c(NCCc3ccncc3)n2)cc(OC)c1 [Example 354, N^2-(3,5-dimethoxyphenyl)-N^4-(2-(pyridin-4-yl)ethyl)-5,5′-bipyrimidine-2,4-diamine]
The inhibition at 13 µM of the first is higher: 81.2% for the first, 80.5% for the second.

`O=C(O)c1cc(-c2cnc(Nc3ccc(F)c(Cl)c3)nc2-n2ccc(C(F)(F)F)n2)cnc1NCCN1CCOCC1` [Example 1077, 5-(2-(3-Chloro-4-fluorophenylamino)-4-(3-(trifluoromthyl)-1H-pyrazol-1-yl)pyrimidin-5-yl)-2-(2-morpholinoethylamino)nicotinic acid] and `CN1CCC(Oc2ncc(-c3cnc(Nc4ccc(F)c(Cl)c4)nc3-n3ccc(C(F)(F)F)n3)cc2C(=O)O)C1` (centres unmarked) [Example 789, 5-{2-[(3-chloro-4-fluorophenyl)amino]-4-[3-(trifluoromethyl)-1H-pyrazol-1-yl]pyrimidin-5-yl}-2-[(1-methylpyrrolidin-3-yl)oxy]pyridine-3-carboxylic acid] are the same in inhibition at 13 µM: 99% for the first, 99% for the second.

`COc1cc(Nc2ncc(-c3cc(C(=O)O)c(=O)n(C)c3)c(-n3nc(C(F)(F)F)cc3C)n2)cc(OC)c1` [Example 918, 5-(2-(3,5-dimethoxyphenylamino)-4-(5-methyl-3-(trifluoromnethyl)-1H-pyrazol-1-yl)poyrimidin-5-yl)-1-methyl-2-oxo-1,2-dihydropyridine-3-carboxylic acid] and `Cc1cc(C(F)(F)F)nn1-c1nc(Nc2ccc(F)c(Cl)c2)ncc1-c1cc(C(=O)O)c(=O)n(C)c1` [Example 1088, 5-(2-(3-chloro-4-fluorophenylamino)-4-(5-methyl-3-(trifluoromethyl)-1H-pyrazol-1-yl)pyrimidin-5-yl)-1-methyl-2-oxo-1,2-dihydrpyridine-3-carboxylic acid] are the same in inhibition at 13 µM: 100% for the first, 100% for the second.

Compared with `Cc1cc(Nc2ncc(-c3cccc(/C=C/C(=O)O)c3)c(N3CCOCC3)n2)ccc1F` [Example 450], `O=C(O)/C=C/c1cccc(-c2cnc(Nc3cc(F)cc(F)c3)nc2N2CCOCC2)c1` [Example 404, (E)-3-{3-[2-(3,5-Difluoro-phenylamino)-4-morpholin-4-yl-pyrimidin-5-yl]-phenyl}-acrylic acid] is lower in inhibition at 13 µM: 86% for the first, 81% for the second.

Going from `O=C(O)c1cncc(-c2cnc(Nc3ccc(F)c(Cl)c3)nc2N2CCCCC2)c1` [Example 275, 5-(2-(3-chloro-4-fluorophenylamino)-4-(piperidin-1-yl)pyrimidin-5-yl)nicotinic acid] to `CC(=O)N1CCN(c2nc(Nc3ccc(F)c(Cl)c3)ncc2-c2cncc(C(=O)O)c2)CC1` [Example 276, 5-(4-(4-acetylpiperazin-1-yl)-2-(3-chloro-4-fluorophenylamino)-pyrimidin-5-yl)nicotinic acid], the inhibition at 13 µM falls from 134% to 80.3%.

First: Cc1cc(C(F)(F)F)nn1-c1nc(Nc2ccc(F)c(Cl)c2)ncc1-c1cncnc1 [Example 70, N-(3-chloro-4-fluorophenyl)-4-[5-methyl-3-(trifluoromethyl)-1H-pyrazol-1-yl]-5,5′-bipyrimidin-2-amine]
Second: Cc1noc(CCNC(=O)c2cncc(-c3cnc(Nc4ccc(F)c(Cl)c4)nc3-n3nc(C(F)(F)F)cc3C)c2)n1 [Example 929, 5-(2-(3-chloro-4-fluorophenylamino)-4-(5-methyl-3-(trifluoromethyl)-1H-pyrazol-1-yl)pyrimidin-5-yl)-N-(2-(3-methyl-1,2,4-oxadiazol-5-yl)ethyl)nicotinamide]
The inhibition at 13 µM of the first is higher: 86.6% for the first, 82% for the second.

First: CC(=O)NCCNc1nc(Nc2ccc(F)c(Cl)c2)ncc1-c1cncnc1 [Example 37, N-[2-[[2-[(3-chloro-4-fluorophenyl)amino]-5-pyrimidin-5-ylpyrimidin-4-yl]amino]ethyl] acetamide]
Second: COCCNc1nc(Nc2ccc(F)c(Cl)c2)ncc1-c1cncnc1 [Example 50, N^2-(3-chloro-4-fluorophenyl)-N^4-(2-methoxyethyl)-5-pyrimidin-5-ylpyrimidine-2,4-diamine]
The inhibition at 13 µM of the first is lower: 76.3% for the first, 77.8% for the second.

`Cc1cc(C(F)(F)F)nn1-c1nc(Nc2cc(Cl)cc(C#N)c2)ncc1-c1cncc(C(=O)O)c1` [Example 1123, 5-(2-(3-chloro-5-cyanophenylamino)-4-(5-methyl-3-(trifluoromethyl)-1H-pyrazol-1-yl)pyrimidin-5-yl)nicotinic acid] and `COc1ncc(-c2cnc(Nc3cc(Cl)cc(C#N)c3)nc2-n2ccc(C(F)(F)F)n2)cc1C(=O)O` [Example 917, 5-(2-(3-chloro-5-cyanophenylamino)-4-(3-(trifluoromethyl)-1H-pyrazol-1-yl)pyrimidin-5-yl)-2-methoxynicotinic acid] are the same in inhibition at 13 µM: 100% for the first, 100% for the second.

First: Fc1ccc(Nc2ncc(-c3cncnc3)c(N3CCOCC3)n2)cc1Cl [Example 76, N-(3-chloro-4-fluorophenyl)-4-morpholin-5,5′-bipyrimidin-2-amine]
Second: CCOC(=O)c1cncc(-c2cnc(Nc3ccc(F)c(Cl)c3)nc2N2CCC(N3CCOCC3)CC2)c1 [Example 119, ethyl 5-[2-[(3-chloro-4-fluorophenyl)amino]-4-(4-morpholin-4-ylpiperidin-1-yl)pyrimidin-5-yl]pyridine-3-carboxylate]
The inhibition at 13 µM of the first is higher: 79.3% for the first, 32% for the second.

Compared with `C[C@@H](Nc1nc(Nc2ccc(F)c(Cl)c2)ncc1-c1cncc(C(=O)O)c1)C(=O)O` [Example 240, 5-[2-[(3-chloro-4-fluorophenyl)amino]-4-[[(2R)-1-hydroxy-1-oxopropan-2-yl]amino]pyrimidin-5-yl]pyridine-3-carboxylic acid], `CCOC(=O)c1cncc(-c2cnc(Nc3ccc(F)c(Cl)c3)nc2NCCc2ccncc2)c1` [Example 103, 5-[2-(3-Chloro-4-fluoro-phenylamino)-4-(2-pyridin-4-yl-ethylamino)-pyrimidin-5-yl]-nicotinic acid ethyl ester] is higher in inhibition at 13 µM: 45.8% for the first, 79.5% for the second.

First: COc1cc(Nc2ncc(-c3ccc(C(=O)O)s3)c(NCCCN(C)C)n2)cc(C(F)(F)F)c1 [Example 346, 5-{4-[3-(dimethylamino)propylamino]-2-[3-methoxy-5-(trifluoromethyl)phenylamino]pyrimidin-5-yl}thiophene-2-carboxylic acid]
Second: COc1cc(C#N)cc(Nc2ncc(-c3cccc(/C=C/C(=O)O)c3)c(-n3ccc(C(F)(F)F)n3)n2)c1 [Example 728, (2E)-3-(3-{2-[(3-cyano-5-methoxyphenyl)amino]-4-[3-(trifluoromethyl)-1H-pyrazol-1-yl]pyrimidin-5-yl}phenyl)prop-2-enoic acid]
The inhibition at 13 µM of the first is lower: 79.5% for the first, 100% for the second.

Going from `COc1cc(Nc2ncc(-c3cnc(OC)nc3)c(N3CC(C)OC(C)C3)n2)cc(C(F)(F)F)c1` (centres unmarked) [Example 349, 4-(2,6-dimethylmorpholino)-2′-methoxy-N-(3-methoxy-5-(trifluoromethyl)phenyl)-5,5′-bipyrimidin-2-amine] to `COc1ncc(-c2cnc(Nc3cc(C)cc(F)c3)nc2-n2nc(C(F)(F)F)cc2C)cc1C(=O)O` [Example 755, 5-{2-[(3-fluoro-5-methylphenyl)amino]-4-[5-methyl-3-(trifluoromethyl)-1H-pyrazol-1-yl]pyrimidin-5-yl}-2-methoxypyridine-3-carboxylic acid], the inhibition at 13 µM rises from 83.6% to 100%.

Compound `COc1ncc(-c2cnc(Nc3cc(C)cc(C)c3)nc2-n2nc(C(F)(F)F)cc2C)cc1C(=O)NS(C)(=O)=O` [Example 899, 5-(2-(3,5-dimethylphenylamino)-4-(5-methyl-3-(trifluoromethyl)-1H-pyrazol-1-yl)pyrimidin-5-yl)-2-methoxy-N-(methylsulfonyl)nicotinamide] has an inhibition at 13 µM of 97%.
